Assays:
Assay in all cases: drug sensitivity score (DSS3, normalised partial AUC of % inhibition dose-response) (DSS (score)); higher = more sensitive (stronger inhibition of viability); extreme values may be limits of the assay
[1] = test system: FMOC25_2 (patient-derived low-grade serous ovarian cancer cells); conditions: 72 h; library: FO5A; assay format: 2D, 384-well, CellTiter-Glo
In short: (§1)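 Early-passage (under 10) patient-derived ovarian cancer cells were dispensed onto 384-well flat clear-bottom plates pre-plated with compounds at five concentrations spanning a 10,000-fold range, then incubated 72 h at 37 °C, 5% CO2. Viability was read with CellTiter-Glo, and the data were processed in Breeze. The drug sensitivity score is a partial area under the percent-inhibition dose-response curve divided by the log of the upper asymptote, with higher values meaning greater sensitivity.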

[2] = test system: FMOC28 (patient-derived low-grade serous ovarian cancer cells); conditions: 72 h; library: FO5A; assay format: 2D, 384-well, CellTiter-Glo
In short: as §1

[3] = test system: FMOC03 (patient-derived mucinous ovarian cancer cells); conditions: 72 h; library: FO5A; assay format: 2D, 384-well, CellTiter-Glo
In short: as §1

[4] = test system: FMOC09 (patient-derived high-grade serous ovarian cancer cells); conditions: 72 h; library: FO5A; assay format: 2D, 384-well, CellTiter-Glo
In short: as §1

[5] = test system: FMOC06 (patient-derived mucinous ovarian cancer cells); conditions: 72 h; library: FO5A; assay format: 2D, 384-well, CellTiter-Glo
In short: as §1

[6] = test system: FMOC02_1 (patient-derived low-grade serous ovarian cancer cells); conditions: 72 h; library: FO5A; assay format: 2D, 384-well, CellTiter-Glo
In short: as §1

[7] = test system: FMOC27 (patient-derived low-grade serous ovarian cancer cells); conditions: 72 h; library: FO5A; assay format: 2D, 384-well, CellTiter-Glo
In short: as §1

[8] = test system: FMOC17 (patient-derived low-grade serous ovarian cancer cells); conditions: 72 h; library: FO5A; assay format: 2D, 384-well, CellTiter-Glo
In short: as §1

[9] = test system: FMOC25_1 (patient-derived low-grade serous ovarian cancer cells); conditions: 72 h; library: FO4B; assay format: 2D, 384-well, CellTiter-Glo
In short: as §1

[10] = test system: FMOC02_2 (patient-derived low-grade serous ovarian cancer cells); conditions: 72 h; library: FO5A; assay format: 2D, 384-well, CellTiter-Glo
In short: as §1

[11] = test system: FMOC24 (patient-derived high-grade serous ovarian cancer cells); conditions: 72 h; library: FO5A; assay format: 2D, 384-well, CellTiter-Glo
In short: as §1

[12] = test system: FMOC02_3 (patient-derived low-grade serous ovarian cancer cells); conditions: 72 h; library: FO5A; assay format: 2D, 384-well, CellTiter-Glo
In short: as §1

[13] = test system: FMOC22 (patient-derived mucinous ovarian cancer cells); conditions: 72 h; library: FO5A; assay format: 2D, 384-well, CellTiter-Glo
In short: as §1

[14] = test system: FMOC14 (patient-derived high-grade serous ovarian cancer cells); conditions: 72 h; library: FO5A; assay format: 2D, 384-well, CellTiter-Glo
In short: as §1

[15] = test system: FMOC04 (patient-derived high-grade serous ovarian cancer cells); conditions: 72 h; library: FO5A; assay format: 2D, 384-well, CellTiter-Glo
In short: as §1

[16] = test system: FMOC11 (patient-derived high-grade serous ovarian cancer cells); conditions: 72 h; library: FO5A; assay format: 2D, 384-well, CellTiter-Glo
In short: as §1

Structure (SMILES) | drug sensitivity score [1] | drug sensitivity score [2] | drug sensitivity score [3] | drug sensitivity score [4] | drug sensitivity score [5] | drug sensitivity score [6] | drug sensitivity score [7] | drug sensitivity score [8] | drug sensitivity score [9] | drug sensitivity score [10] | drug sensitivity score [11] | drug sensitivity score [12] | drug sensitivity score [13] | drug sensitivity score [14] | drug sensitivity score [15] | drug sensitivity score [16]
CCC1(c2ccc(N)cc2)CCC(=O)NC1=O (configuration not stated) [Aminoglutethimide] | 0 | 0 | 0 | 0 | 0 | 0 | 0 | 0.1 | 0.4 | 0.1 | 1.05 | 0.6 | 0 | 0 | 0 | 0
S=C(NCc1ccc2c(c1)OCO2)N1CCN(c2ncnc3c2oc2ccccc23)CC1 [Amuvatinib] | 0 | 0 | 2.6 | 0 | 0.8 | 0.4 | 0 | 0.3 | 0 | 0 | 0 | 0 | 2.2 | 2 | 0.3 | 0.7
CC(C)(C#N)c1cc(Cn2cncn2)cc(C(C)(C)C#N)c1 [Anastrozole] | 0 | 0 | 0 | 0 | 0 | 0 | 0 | 0 | 0 | 0 | 0 | 0 | 0 | 0 | 0 | 0
N#CC1(c2ccc(NC(=O)c3cccnc3NCc3ccncc3)cc2)CCCC1 [Apatinib] | 1.5 | 4.5 | 0 | 0 | 0 | 0.3 | 0 | 0 | 2.3 | 1.1 | 0.1 | 1.5 | 0 | 0 | 0.6 | 0
CC(C)c1c(C(=O)Nc2ccccc2)c(-c2ccccc2)c(-c2ccc(F)cc2)n1CC[C@@H](O)C[C@@H](O)CC(=O)O [Atorvastatin] | 3.2 | 5.3 | 2.9 | 4.9 | 1.6 | 1 | 0 | 2.9 | 0.6 | 1.9 | 6.75 | 1.5 | 4.5 | 3.2 | 0.65 | 3.1
CNC(=O)c1ccccc1Sc1ccc2c(/C=C/c3ccccn3)n[nH]c2c1 [Axitinib] | 0 | 0 | 2.1 | 0 | 0 | 1.9 | 0 | 0.3 | 0 | 0.5 | 2.15 | 0.1 | 1.2 | 0 | 0.45 | 0.1
Nc1nc(Nc2ccc3c(c2)CC[C@@H](N2CCCC2)CC3)nn1-c1cc2c(nn1)-c1ccccc1CCC2 [BGB324] | 2.7 | 0.8 | 2.4 | 0.9 | 3.7 | 7.2 | 0.3 | 3.8 | 5.1 | 5 | 7.9 | 7.6 | 1.7 | 6.2 | 5.35 | 4.4
Cc1ccc(NC(=O)c2ccc(CN3CC[C@H](N(C)C)C3)c(C(F)(F)F)c2)cc1Nc1nccc(-c2cncnc2)n1 [Bafetinib] | 0 | 0.1 | 0 | 0 | 0 | 0.2 | 0 | 0 | 0 | 0 | 0 | 0.1 | 0 | 0 | 0 | 0
CCS(=O)(=O)N1CC(CC#N)(n2cc(-c3ncnc4[nH]ccc34)cn2)C1 [Baricitinib] | 0 | 0 | 0 | 0 | 0 | 0 | 0 | 0 | 0 | 0 | 0.05 | 0 | 0 | 0 | 0 | 0
N#CC(c1ccnc(OCc2ccc(CN3CCOCC3)cc2)n1)c1nc2ccccc2s1 (configuration not stated) [Bentamapimod] | 1 | 3.8 | 2.8 | 2.9 | 2 | 1.1 | 0 | 4.2 | 0.7 | 0.9 | 5.8 | 1.7 | 2 | 2.3 | 0.4 | 3.2
C=C(c1ccc(C(=O)O)cc1)c1cc2c(cc1C)C(C)(C)CCC2(C)C [Bexarotene] | 0 | 5.3 | 1.7 | 1.8 | 0 | 0 | 1.5 | 0.1 | 0.3 | 6 | 0.9 | 4.3 | 1.1 | 0 | 0 | 1.2
CC(O)(CS(=O)(=O)c1ccc(F)cc1)C(=O)Nc1ccc(C#N)c(C(F)(F)F)c1 (configuration not stated) [Bicalutamide] | 0 | 0 | 0 | 0 | 1.1 | 0.1 | 0 | 0.9 | 0 | 0 | 0.85 | 0 | 0 | 0 | 0 | 0

From the supplement of paper PMC9938120
